In US11351215B2, “Composition for preventing hair loss and stimulating hair-growth” (MOTHER″S PHARMACEUTICAL CO., LTD., priority 2018, dated 2022):
Where “and” joins values, the source holds several entries; their conditions need not be identical. Equal values may be shown once.

How the values were obtained:
Format in all cases: in vivo, mouse
male C57BL/6 mice [1] = experiment: Skin tissue pathology test, H&E staining (Example 2-2); conditions: H&E stained skin tissue, day 12
Protocol: (§1) The skin tissue pathology test was conducted on day 12 by H&E staining using Hematoxylin and Eosin, which are widely used. A sample was collected from the skin tissue of the sacrificed animals and the generation of hair follicles and phenomena of hair-growth were identified through fixation, washing, clearing, paraffin infiltration, embedding, microtome cutting, staining and reading processes.

male C57BL/6 mice [2] = experiment: Skin tissue pathology test, H&E staining (Example 1-2); conditions: H&E stained skin tissue after end of experiment
Protocol: as §1, with “conducted” for “conducted on day 12”, “generally used widely.” for “widely used.”
In this study, Anagen_Early (A/e) indicates the state in which hair has just begun to develop and Anagen_late (A/l) and Catagen_early (C/e) indicate that hair-growth is in full swing. Anagen_late and Catagen_early have histologically similar positions of the hair bulb. When considering morphological changes according to tissue sections, it is necessary to consider that it is often unclear to distinguish there between. Nevertheless, the hair follicles in the Anagen_late and Catagen_early stages are generally considered as similar stages of development, and the results are interpreted.

male C57BL/6 mice [3] = experiment: Hair-growth efficacy test in catagen inhibition animal model, visual inspection, Centipeda minima extracts (Example 2-1); conditions: Day 5 after 7 days of administration (+12 day); topical 100 μL twice a day; dexamethasone-induced catagen
Excerpt: (§2) To proceed with the hair-growth efficacy test in the catagen inhibition animal model of Centipeda minima extract, male C57BL/6 mice (5 weeks of age) were purchased and subjected to acclimation for 1 week and selected animals weighing 20 to 24 g. In the case of an animal in which skin damage occurred during hair removal, or if the skin color was black, the growth period was already in progress, so it was inappropriate for this experiment and was excluded from the experiment.
The test group was divided into a normal group, a negative control group, a test substance-administered group, and a positive control groups 1 and 2. The normal group had three mice, the negative control group had 4 mice, the test substance-administered group had 4 mice, and the positive control group 1 (Tofacitinib) had four mice, and the positive control group 2 (Minoxidil) had four mice. […]
Further, to quantify the results of hair-growth efficacy visual inspection, a black portion (anagen) or a region where hair-growth begins in the entire hair removal site (solvent or test substance, positive control substance application site) was visually observed. […]

male C57BL/6 mice [4] = experiment: Hair-growth efficacy test in catagen inhibition animal model, visual inspection with image analysis (Example 1-1); conditions: values of individual mice
Excerpt: as §2, with “16” for “20”, “21” for “24”
The test group was divided into a normal group, a negative control group, a test substance-administered group, and a positive control groups 1 and 2. Each of the normal group and the negative control group had 1 mouse, the test substance-administered group had 3 mice, and the positive control group 1 had two mice, and the positive control group 2 had one mouse. […]
Further, in order to quantify the results of hair-growth efficacy visual inspection, image analysis was performed on the entire epilation site (solvent or test substance, positive control substance application site) that is black (anagen) or a site where hair-growth begins. […] The result was quantified in %. […]

Row | Molecule | hair follicle generation and hair-growth efficacy (skin histology, FIG. 9) (male C57BL/6 mice [1]) | hair follicle generation and hair-growth efficacy (skin histology, FIG. 5) (male C57BL/6 mice [2]) | Hair-growth efficacy (%) (male C57BL/6 mice [3]) | hair-growth efficacy (image analysis of epilation site) (male C57BL/6 mice [4]; Day 17 after administration, 0.1% dexamethasone to maintain catagen) | tendency to migrate to anagen (black/hair-growth area of epilation site, image analysis) (male C57BL/6 mice [4]; on 3 days of administration, topical 100 μL twice a day, dexamethasone-induced catagen)
1 | 6-amino-1,2-dihydro-1-hydroxy-2-imino-4-phenoxypyrimidine [Minoxidil] | only minimal hair follicle generation and hair-growth efficacy degree | only minimal hair follicle generation and hair-growth efficacy degree | 45% | 6.1% and 21.2% | 0.1% and 0.3%
2 | C[C@@H]1CCN(C(=O)CC#N)C[C@@H]1N(C)c1ncnc2[nH]ccc12 [Tofacitinib] | only minimal hair follicle generation and hair-growth efficacy degree | – | 25% | – | –
